Measured values as given in article PMC4599563 (ACS Medicinal Chemistry Letters, 2015).

Biological target: mouse SR-BI (Mus musculus, UniProt Q61009)
Experiment: [3H]cholesteryl ester uptake assay
Format: cell-based

mouse SR-BI, sequence (Q61009 whole entry): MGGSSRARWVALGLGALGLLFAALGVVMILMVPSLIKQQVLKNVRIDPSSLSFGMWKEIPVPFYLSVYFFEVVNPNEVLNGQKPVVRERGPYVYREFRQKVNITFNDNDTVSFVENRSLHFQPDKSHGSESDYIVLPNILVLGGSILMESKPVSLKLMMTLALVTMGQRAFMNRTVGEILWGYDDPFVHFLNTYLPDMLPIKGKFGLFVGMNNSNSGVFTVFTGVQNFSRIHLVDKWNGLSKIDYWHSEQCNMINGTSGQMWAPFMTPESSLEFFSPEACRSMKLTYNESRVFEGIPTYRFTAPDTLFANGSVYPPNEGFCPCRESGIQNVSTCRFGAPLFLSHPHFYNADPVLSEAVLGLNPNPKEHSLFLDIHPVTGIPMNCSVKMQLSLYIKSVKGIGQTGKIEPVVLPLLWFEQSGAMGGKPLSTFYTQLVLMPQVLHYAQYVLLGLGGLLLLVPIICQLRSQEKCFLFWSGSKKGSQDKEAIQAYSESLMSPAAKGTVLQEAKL

- IC50: 0.94 µM
SMILES: COc1c(NC(=O)C(=O)c2ccc(OCCN3CCOCC3)c3ccccc23)cc(C(C)(C)C)cc1NS(C)(=O)=O [ITX-5061]
